Where no end group is shown, it is not given here. Side-chain parts run from the residue outwards. The star is where a group is joined. DSPE = CCCCCCCCCCCCCCCCCC(=O)OC[C@H](COP(=O)(O)OCCN*)OC(=O)CCCCCCCCCCCCCCCCC; MAL = maleimide
Columns and labels:
[1] = tested on: primary stromal stem/progenitor cells derived from inguinal WAT (iWAT); details: 10 μM, brown-like differentiation; cited from earlier work
[2] = In vitro release, dialysis method (Example 2); assay type: physicochemical
Method: The mean particle size, PI and zeta potential were measured every day. The in vitro release behavior was measured in the dissolution medium, which was composed of 1× phosphate buffer saline (1×PBS, pH 7.4) and methanol (80:20, v/v), using a dialysis method. […] R released into the medium at each time point was determined using the Shimadzu high-performance liquid chromatography (HPLC) system (Shimadzu Corporation, Kyoto, Japan).

obese C57BL/6J mice [3] = experiment: Anti-obesity study: body weight, composition, food intake, fat pads, adipocyte size; assay type: in vivo
Method: (§1) Sixty male 6-week old C57BL/6J mice from Jackson's lab were fed with a high-fat diet (HFD) (45% energy from fat, Research Diets, Inc, D12451) for 9 weeks starting from week 1 (age 7 weeks old) to week 9 (age 15 weeks old). The mice were allowed to drink and eat the HFD ad libitum and maintained at 22-24° C., 45% relative humidity and a daily 12/12 hour light/dark cycle. […] Treatments were intravenously injected into mice via tail veins twice a week. Food intake and body weight were recorded weekly. Glucose tolerance test (GTT) was conducted at week 8 and the insulin tolerance test (ITT) and cold tolerance test were conducted at week 9.
After 9 weeks, mice were fasted overnight and humanely sacrificed. Blood was collected from the abdominal vein and brain, liver, lung, spleen, kidneys, skeletal muscle, gonadal white adipose tissue (G-WAT), inguinal WAT (I-WAT), retroperitoneal WAT (RP-WAT), and BAT of each mouse. Each tissue was cut into 3 pieces to be immediately frozen in liquid nitrogen followed by storage at −80° C. and fixed in 4% paraformaldehyde (for histology).
Body composition of mice was performed at week 0, 2, 4 and 5 of treatments using an EchoMRI™ Whole Body Composition Analyzer (MRI system) (EchoMRI LLC, Houston, Tex., USA).
H&E staining of I-WAT was conducted by the Department of Pathology of Texas Tech University Health Sciences Center. Briefly, the paraffin-embedded I-WAT sections (5 μm) were deparaffinized and rehydrated with xylene and ethanol. Sections were cleaned with water to skim reagent residue. Excess water was then blotted, the sections were incubated with Hematoxylin for 4 minutes, and washed several times using water. The sections were stained with Eosin and dehydrated. Finally, the sections were cleaned and covered with xylene-based mounting medium.

[4] = In vitro release, dialysis method (Example 1); assay type: physicochemical; details: for R released from dialysis bag: bag containing 0.5 mg R
Method: The dissolution medium was composed of 1×PBS and methanol (80:20, v/v). […] See Sun et al., Colloids Surf B Biointerfaces, 113 (2014) 15-24.
The release study was conducted in the dark to prevent light-induced R degradation. To minimize the effect of R stability, the dissolution medium was changed completely each hour for the first 2 hr, and every 2 hr for the rest 8 hr.

3T3-L1 white adipocytes = experiment: Browning: marker mRNA by Real Time-PCR in differentiating adipocytes, basal or ISO-stimulated; assay type: cell-based, Murine
Method: The cells were then stimulated with isoproterenol (ISO) for 6 hr. Relative mRNA expression of Uncoupling protein 1 (UCP-1), PPARγ, PPARγ co-activator 1α (PGC-1α), and PR-domain-containing 16 (PRDM16) were analyzed by semi-quantitative Real Time-PCR. Data=mean±SEM (n=3). E, Ethanol containing vehicle control for native R. R, rosiglitazone, a positive control. Letters of a-c or a′-c′ on top of the bars define differences among various forms of R under either basal or ISO-stimulated conditions, respectively. Different letters indicate significant differences among various R. *, p<0.05; **, p<0.01; ***, p<0.001 compared to their controls.
The cells were then stimulated with ISO for 6 hr. Relative mRNA expression of white marker insulin-like growth factor-binding protein 3 (IGFBP3) (FIG. 9A) and beige marker CD137 and transmembrane protein 26 (Tmem26) (FIG. 9B) were analyzed by semi-quantitative reverse transcription polymerase chain reaction (RT-PCR). Data=mean±SEM (n=3). E, Ethanol containing vehicle control for native R. R, rosiglitazone, a positive control. Letters of a-c or a′-c′ on top of the bars define differences among various forms of R under both basal and ISO-stimulated conditions, respectively. Different letters indicate significant differences among various R. *, p<0.05; **, p<0.01 compared to the controls.
Total RNA was extracted, cDNA was synthesized, and real-time PCR was performed using an ABI 7300HT instrument.
The hallmark of beige adipocytes is induced thermogenesis in response to stimuli, such as […] agonist ISO.

obese C57BL/6J mice [5] = experiment: Fasting insulin, glucose, HOMA-IR, leptin, GTT and ITT; details: mouse, in vivo
Method: as §1
GTT and ITT were performed at end of treatments to assess whole-body glucose and insulin tolerance. […] Blood was collected and blood glucose concentrations were measured with a One Touch® glucometer from tail vein blood at 0, 15, 30, 60, 90, and 120 minutes post-injection. […] Blood glucose concentrations were measured as above at 0, 15, 30, 45, and 60 minutes post-injection. The area under the curve (AUC) was calculated. Blood glucose concentrations were plotted against time and the area under curve was calculated by following formula: […]
Fasting plasma glucose concentrations were measured by One Touch® glucometer. Fasting insulin concentrations were determined by an insulin Millipore® ELISA commercial kit (Millipore, Billerica, Mass., USA). […]

[6] = Chemical stability of R by HPLC under light or dark; assay type: physicochemical
[7] = Aqueous solubility, 1 mg R in 1 mL 1×PBS; assay type: physicochemical; details: visual observation
[8] = cited from earlier work
[9] = biological target: endogenous surface ΔDCN receptor of mouse adipose stromal cells (ASC) in C57BL/6J white adipose tissue stromal vascular cells (mouse); experiment: cell-based or functional assay
[10] = biological target: decorin lacking the glycanation site (ΔDCN), on ΔDCN-transduced 3T3-L1 cells (ΔDCN cells); experiment: cell-based or functional assay
[11] = biological target: decorin lacking the glycanation site (ΔDCN), on ΔDCN-transduced 3T3-L1 cells (ΔDCN cells); experiment: flow cytometry of ΔDCN cells incubated 2 h at 37° C. with DiD-labelled nanoparticles

Molecule: Oc1ccc(/C=C/c2cc(O)cc(O)c2)cc1 [native R, 3,5,4′-trihydroxy-trans-stilbene]
- mRNA expression of UCP1 and beige marker CD137 and Tmem26 [1]: enhanced
- R release ([2]; after eight hours): undetected
- R released from dialysis bag ([2]; first two hours): more than 0.13 mg
- released R as share of total R ([2]; first two hours): around 35%
- mass of R released at every time point ([2]; following six hours): lower than 0.02 mg
- diameter of adipocytes in I-WAT (obese C57BL/6J mice [3]; H&E sections, after 5 weeks): around 100 μm
- body weight (obese C57BL/6J mice [3]; HFD mice, 15 mg/kg, IV twice a week, 5 weeks, vs saline): no significant reduction
- percentage of body fat (% body fat) (obese C57BL/6J mice [3]; HFD mice, 15 mg/kg, IV twice a week, 5 weeks, vs saline, listed as Free R, 15 mg/kg): slightly lower
- percentage of body fat (% body fat) (obese C57BL/6J mice [3]; HFD mice, 15 mg/kg, IV twice a week, 5 weeks, vs saline, listed as free R, 15 mg/kg): no significant reduction
- body weight gain (obese C57BL/6J mice [3]; compared with saline group): decrease
- adipocyte size / area of cells in I-WAT (obese C57BL/6J mice [3]; vs saline): no significant reduction
- release behavior ([4]; 1×PBS:methanol 80:20, dark): burst release
- R released from dialysis bag ([4]; 2-4 hr period): about 0.02 mg
- accumulative released R mass ([4]; 10 hr period): reached a plateau
- R released from dialysis bag ([4]; after 1 hr): about 0.17 mg
- Cox4a mRNA (3T3-L1 white adipocytes; 20 μM, ISO stimulated): increased
- CD137 mRNA expression (3T3-L1 white adipocytes; ISO stimulated conditions): dose-dependently increased
- Tmem26 expression (3T3-L1 white adipocytes; ISO stimulation): increased
- PRDM16 mRNA expression (3T3-L1 white adipocytes; basal conditions): did not change
- Tmem26 mRNA expression (3T3-L1 white adipocytes; basal conditions): decreased
- IGFBP3 mRNA expression compared to controls (3T3-L1 white adipocytes; both basal and ISO stimulated conditions): dose-dependently decreased
- fasting blood insulin and glucose concentrations compared to saline (obese C57BL/6J mice [5]): reduced
- R degradation rate ([6]; 4° C., dark, 7 days): 17%
- R degradation rate ([6]; 22° C., dark, 7 days): 48%
- R degradation rate ([6]; 37° C., dark, 7 days): 52%
- R degradation rate ([6]; 37° C., under the light, 6 days): 90%
- R degraded ([6]; pH 7.4, 4° C., under the light, 7 days): 40%
- R degraded ([6]; pH 7.4, 22° C., under the light, 7 days): 60%
- R degraded ([6]; pH 7.4, 37° C., under the light, 7 days): 96%
- dissolution of 1 mg in 1 mL of 1×PBS [7]: hardly dissolved
- solubility of R in water and physiological fluid [8]: less than 0.1 mg/mL

B1: ligand-coated Rnano (L-Rnano): resveratrol-loaded lipid nanoparticle carrying DSPE-PEG5000-peptide, the linear ASC-targeting peptide … (SEQ ID NO: 2), on its … (peptide)
peptide: GSWKYWFGEGGC([MAL-PEG5000-DSPE])
modifications: also: displayed in many copies on lipid nanoparticle, copy number not given here
- DiD+ ASC after intravenous injection, DiD-L-Rnano mouse against DiD-Rnano treatment (flow cytometry; depot not given, I-WAT by context) [9]: 9.3 fold
- DiD+ cell ratio among the ASC population after intravenous injection of DiD-L-Rnano (flow cytometry; depot not given, I-WAT by context) [9]: 31.7%
- cellular R content of SVCs at 4° C., against free R-treated SVF cells [9]: 2.8 fold
- cellular R content of SVCs at 37° C., against free R-treated SVF cells [9]: 2.5 fold
- percentage of DiD+ ASC in G-WAT after intravenous injection, DiD-L-Rnano mouse against DiD-Rnano mouse (flow cytometry) [9]: 3.5 fold
- percentage of DiD+ ASC in RP-WAT after intravenous injection, DiD-L-Rnano mouse against DiD-Rnano mouse (flow cytometry) [9]: 4.8 fold
- ΔDCN cells R content at 4° C. for 4 hours, against free R and Rnano [10]: 2 fold
- fold DiD positive rate of ΔDCN cells against DiD-labeled Rnano [11]: 5 fold

Reference: patent US20200368174A1, “PARTICLES FOR TARGETED DELIVERY OF ACTIVE AGENTS INTO ADIPOSE STROMAL CELLS” (Texas Tech University System, priority 2018, published 2020)
